Results reported in patent US20190161516A1, “PROTEASOME INHIBITORS” (University of Kentucky Research Foundation, priority 2017, published 2019).

Legend:
X/β5 = biological target: T1, X/β5 (Homo sapiens, UniProt P20618+P28074); assay: Proteasome activity assay, purified 20S proteasome, Ac-WLA-AMC; format: biochemical
T1 construct: purchased R&D Systems
Method: Purified 20S human proteasomes (CP and IP, R&D Systems) were used to assess the in vitro inhibition of proteasome catalytic activity by LMP2 inhibitors. In our 96-well format assays involving a 100 μL total volume, 20S proteasomes (0.5 μg/mL) were incubated with inhibitors or reference compounds (e.g., carfilzomib) in assay buffer (20 mM Tris-HCl, 0.5 mM EDTA, 0.035% SDS) at room temperature for 30 min. Reactions were initiated by the addition of fluorogenic substrates containing the AMC (7-amino-4-methylcoumarin) group. Specifically, the following substrates were used: Suc-LLVY-AMC (CT-L activity, 100 μM), Ac-PAL-AMC (LMP2, 100 μM), Ac-WLA-AMC (β5, 20 μM), Ac-nLPnLD-AMC (β1,100 μM), Ac-RLR-AMC (β2/2i, 20 μM), and Ac-ANW-AMC (β5i, 100 μM). The fluorescence of liberated AMC was measured over a period of 90 min at 360 and 460 nm on a SpectraMax M5 fluorescence plate reader (Molecular Devices). For the proteasome activity of brain tissues isolated from AD mice, tissues were homogenized in RIPA buffer (50 mM Tris Cl, pH 7.4, 150 mM NaCl, 5 mM EDTA, 1% Nonidet P-40, 1% sodium deoxycholate, 0.1% SDS, 1% aprotinin, 50 mM NaF) and sonicated. Samples were centrifuged for 40 min at 14,000×g (4° C.). Protein concentration was determined using the Bradford Assay according to the manufacturer's protocol. […] Fluorescence was recorded for 90 min using a Synergy-HT (Bio Tek) plate reader.

LMP7/β5i = biological target: T2, LMP7/β5i (Homo sapiens, UniProt P20618+P28062); assay: Proteasome activity assay, purified 20S proteasome, Ac-ANW-AMC; format: biochemical
T2 construct: purchased R&D Systems
Method: Purified 20S human proteasomes (CP and IP, R&D Systems) were used to assess the in vitro inhibition of proteasome catalytic activity by LMP2 inhibitors. […] Reactions were initiated by the addition of fluorogenic substrates containing the AMC (7-amino-4-methylcoumarin) group. Specifically, the following substrates were used: Suc-LLVY-AMC (CT-L activity, 100 μM), Ac-PAL-AMC (LMP2, 100 μM), Ac-WLA-AMC (β5, 20 μM), Ac-nLPnLD-AMC (β1,100 μM), Ac-RLR-AMC (β2/2i, 20 μM), and Ac-ANW-AMC (β5i, 100 μM). The fluorescence of liberated AMC was measured over a period of 90 min at 360 and 460 nm on a SpectraMax M5 fluorescence plate reader (Molecular Devices). For the proteasome activity of brain tissues isolated from AD mice, tissues were homogenized in RIPA buffer (50 mM Tris Cl, pH 7.4, 150 mM NaCl, 5 mM EDTA, 1% Nonidet P-40, 1% sodium deoxycholate, 0.1% SDS, 1% aprotinin, 50 mM NaF) and sonicated. Samples were centrifuged for 40 min at 14,000×g (4° C.). Protein concentration was determined using the Bradford Assay according to the manufacturer's protocol. Finally, samples were loaded onto a 96-well plate followed by the addition of the substrate (Ac-PAL-AMC) at 37° C. Fluorescence was recorded for 90 min using a Synergy-HT (Bio Tek) plate reader.

[1] = system: neuronal tissues from the brains of APPsw mice; assay: Cresyl violet staining of neuronal tissues; format: in vivo; settings: APPsw mouse model, FIG. 10
Description: Since LMP2 inhibitors had no effects on Aβ or tau aggregation, we wondered if these compounds are simply protecting neurons from cell death caused by Aβ or LPS. To examine this, we performed Cresyl violet staining experiments on neuronal tissues isolated from the brains of APPsw mice.
Frozen brain tissues were cut into 30 μm sections by using cryostat microtome (Leica CM1850; Leica Microsystems, Korea). The pieces of brain were thoroughly washed with PBS to remove the excess fixative agent, and then transferred to gelatin coated slices and stained with 0.1% Cresyl violet (2-5 minutes) to identify cortical layers and cytoarchitectural features of isocortical region. Next, the sections were washed with distill water and dehydrated by using ascending grades of ethanol (50%, 70%, 90%, and 100%) for 2 min in each grade followed by a 1-min immersion in a 1:1 mixture of absolute alcohol and xylene. The sections were then rinsed with xylene for 5-10 min and mounted with mounting medium (CYTOSEAL™ XYL; Thermo Scientific, USA). The tissue was photographed (100×) in the same areas.

IC50 (X/β5): > 10 µM | IC50 (LMP7/β5i): > 10 µM
SMILES: CC(=O)NCC(=O)N1CCC[C@H]1C(=O)N[C@@H](Cc1ccccc1)C(=O)N[C@@H](CC(C)C)C(=O)[C@@]1(C)CO1 [YU102]
neuroprotective effects [1]: no neuroprotective effects
